From patent US10345295B2, “Device and method for point-of-care diagnostics and antibiotic resistance identification, and applications thereof” (CORNELL UNIVERSITY, priority 2015, dated 2019)

Tested on: attenuated E. coli K12 strain with a kanamycin resistance gene
Assay: colorimetric phenotypic antibiotic susceptibility test (phenol red) in capillary tubes
Type: cell-based
Details: bacteria culture incubated in capillary tubes with added antibiotic; LB media, 0.05% phenol red; read at the 4-hour mark
Description: According to an embodiment, a colorimetric phenotypic testing approach was utilized to assess the antibiotic susceptibility of an attenuated E. coli K12 strain. The pH indicator phenol red was used to provide a phenotypic indication of bacterial growth. For colorimetric phenotypic testing approach, bacterial growth tests were conducted with small sample volumes in a PDMS microchip. The E. coli strain with a kanamycin resistance gene as a selection marker was first streaked and incubated overnight on LB agar plates containing kanamycin. Single colonies were subsequently picked and propagated in liquid bulk culture. Following overnight bulk culture to stationary phase, small volumes (˜1 μL) of culture were separately incubated on the PDMS chip in wells each containing a 19 μL mixture of fresh LB media, 0.05% phenol red, and the antibiotics kanamycin (control) and ampicillin (test). The metabolic activity of viable bacteria leads to an accumulation of organic acids in the growth media, which causes the phenol red to change in color from red to yellow, which is expected for the control group as the E. coli stain is kanamycin resistant.
A similar experiment was conducted by incubating the bacteria culture in capillary tubes designed to hold microliters of liquid. […]

CC1(C)S[C@@H]2[C@H](NC(=O)[C@H](N)c3ccccc3)C(=O)N2[C@H]1C(=O)O [ampicillin]
color change of phenol red pH indicator (phenotypic indication of bacterial growth): No color change
